According to US8278322:
Where two headings read alike, the source gives them in different places.

Question: With CCCC[C@@H]1NC(=O)OCCCC=Cc2ccc3ccnc(c3c2)O[C@@H]2C[C@@H](C(=O)OCC)N(C2)C1=O as the molecule, how does the ring closure, yield of all isomers (from C=CCCCOC(=O)N[C@@H](CCCC)C(=O)N1C[C@H](Oc2nccc3ccc(C=C)cc23)C[C@H]1C(=O)OCC, rcm bond, Zhan Catalyst I (RC-301), dichloro(5-chloro-2-isopropoxybenzylidene)(1,3-dimesitylimidazolidin-2-ylidene)ruthenium, 1,2-dichloroethane, 7.4 mM, 80.0 °C, 2.0 h) read?
Answer: 63.5%

Question: Which ring closure, yield of all isomers (from CCOC(=O)[C@@H]1C[C@@H](Oc2nccc3ccc(C#CCCCOC(=O)N[C@H](C(=O)O)C(C)(C)C)cc23)CN1C(=O)OC(C)(C)C, amide bond, HATU, DCM, 3.7 mM, 20.0 h, 2 steps) does the source give for CCOC(=O)[C@@H]1C[C@@H]2CN1C(=O)[C@H](C(C)(C)C)NC(=O)OCCCC#Cc1ccc3ccnc(c3c1)O2 here?
Answer: 14.5%

Question: For C=C1CC(C)(C)COC(=O)N[C@@H](C2CCCCC2)C(=O)N2C[C@@H](C[C@H]2C(=O)OCC)Oc2nccc3cc(OC)c1cc23, which ring closure, yield of all isomers (from C=CCC(C)(C)COC(=O)N[C@H](C(=O)N1C[C@H](Oc2nccc3cc(OC)c(Br)cc23)C[C@H]1C(=O)OCC)C1CCCCC1, cc_pd bond, PdCl2(dppf), ethanol, 66.4 mM, 90.0 °C, 19.0 h) is on record?
Answer: 35.5%

Question: For CCOC(=O)[C@@H]1C[C@@H]2CN1C(=O)[C@H](C1CCCC1)NC(=O)OCC(C)(C)C/C=C/c1ccc3ccnc(c3c1)O2, which ring closure, yield of all isomers (from C=CCC(C)(C)COC(=O)N[C@H](C(=O)N1C[C@H](Oc2nccc3ccc(C=C)cc23)C[C@H]1C(=O)OCC)C1CCCC1, rcm bond, Zhan 1B, DCE, 2.88 mM, 70.0 °C, 3.0 h) is on record?
Answer: 83%
